≈ marks a conversion by molar mass, not a printed value.
Legend:
Assay in all cases: ≥ marks a high value that may be exact or a test limit, other limits are often not marked, values filed in µg/mL are converted to µM
[1] = tested on: Escherichia coli ATCC 25922
[2] = tested on: Candida albicans ATCC 90028
[3] = tested on: Staphylococcus aureus NCTC 8325
[4] = tested on: Staphylococcus epidermidis ATCC 12228
[5] = tested on: Salmonella enterica subsp. enterica serovar Typhimurium C77-31
[6] = tested on: Staphylococcus aureus ATCC 29213
[7] = tested on: Staphylococcus aureus ATCC 25923
Escherichia coli UB1005 = tested on: Escherichia coli UB1005

Structure (SMILES) | MIC [1] | MIC [2] | MIC [3] | MIC [4] | MIC [5] | MIC [6] | MIC [7] | MIC (Escherichia coli UB1005)
CC[C@H](C)[C@H](NC(=O)CNC(=O)[C@H](C)NC(=O)[C@@H](NC(=O)[C@@H](NC(=O)[C@@H]1CCCN1C(=O)[C@H](CC(C)C)NC(=O)[C@@H](N)Cc1ccccc1)[C@@H](C)CC)[C@@H](C)CC)C(=O)N[C@@H](C)C(=O)N[C@@H](C)C(=O)N[C@@H](CCCCN)C(=O)N[C@H](C(=O)N[C@@H](Cc1ccccc1)C(=O)N1CCC[C@H]1C(=O)N[C@@H](CCCCN)C(=O)N[C@H](C(=O)N[C@@H](Cc1ccccc1)C(=O)N[C@H]1CSSC[C@@H](C(=O)O)NC(=O)[C@H](CCCCN)NC(=O)[C@H](CCCCN)NC(=O)[C@H](CO)NC(=O)[C@H]([C@@H](C)CC)NC(=O)[C@H](C)NC1=O)[C@@H](C)CC)C(C)C [FLPIIAGIAAKVFPKIFCAISKKC] | 14 µM (≈ 36.1 µg/mL) | 7 µM (≈ 18 µg/mL) | 5 µM (≈ 12.9 µg/mL) | – | – | – | – | –
CC[C@H](C)[C@H](NC(=O)CNC(=O)[C@H](CCC(N)=O)NC(=O)[C@H](Cc1ccccc1)NC(=O)[C@@H](NC(=O)[C@H](CCCCN)NC(=O)[C@H](CCCCN)NC(=O)[C@H](CC(C)C)NC(=O)[C@H](C)NC(=O)[C@H](CC(N)=O)NC(=O)[C@H](CC(C)C)NC(=O)CN)C(C)C)C(=O)N[C@@H](Cc1cnc[nH]1)C(=O)N[C@@H](CCC(=O)O)C(=O)N[C@@H](C)C(=O)N[C@H](C(=O)N[C@@H](CCCCN)C(=O)N[C@@H](CC(C)C)C(=O)N[C@H](C(=O)N[C@@H](CC(N)=O)C(=O)N[C@@H](CCCCN)C(=O)N[C@@H](Cc1cnc[nH]1)C(=O)N[C@H](C(=O)N[C@@H](CCC(N)=O)C(=O)O)C(C)C)[C@@H](C)CC)[C@@H](C)CC [GLNALKKVFQGIHEAIKLINKHVQ] | 20 µM (≈ 54 µg/mL) | – | ≥ 80 µM | – | – | – | – | –
CC(C)C[C@H](NC(=O)[C@H](CCCN=C(N)N)NC(=O)[C@@H](NC(=O)[C@H](CCCN=C(N)N)NC(=O)[C@@H](NC(=O)[C@H](CCCCN)NC(=O)[C@@H](NC(=O)[C@H](CCCN=C(N)N)NC(=O)[C@H](CC(C)C)NC(=O)[C@H](CCCN=C(N)N)NC(=O)[C@@H](N)C(C)C)C(C)C)[C@@H](C)O)C(C)C)C(=O)N[C@@H](CCCCN)C(N)=O [VRLRVKTRVRLK] | 4 µM (≈ 6.09 µg/mL) | – | – | 32 µM (≈ 48.7 µg/mL) | 16 µM (≈ 24.4 µg/mL) | 16 µM (≈ 24.4 µg/mL) | 64 µM (≈ 97.5 µg/mL) | 4 µM (≈ 6.09 µg/mL)
CC[C@H](C)[C@@H]1NC(=O)[C@@H](NC(=O)[C@H](CCCCN)NC(=O)[C@H](CC(C)C)NC(=O)CNC(=O)[C@H](CCC(N)=O)NC(=O)[C@H](CC(C)C)NC(=O)[C@H](CC(C)C)NC(=O)[C@H](CCCCN)NC(=O)CNC(=O)[C@H](C)NC(=O)[C@H](CC(C)C)NC(=O)CNC(=O)[C@H](CCCCN)NC(=O)[C@H](CC(C)C)NC(=O)[C@@H](NC(=O)[C@H](CC(=O)O)NC(=O)[C@H](CC(C)C)NC(=O)[C@H](Cc2ccccc2)NC(=O)[C@H](CC(C)C)NC(=O)CN)[C@@H](C)O)CSSC[C@@H](C(=O)N[C@@H](CCCCN)C(=O)N2CCC[C@H]2C(=O)O)NC(=O)CNC(=O)[C@H](C)NC(=O)[C@H](CCCCN)NC1=O [GLFLDTLKGLAGKLLQGLKCIKAGCKP] | 2 µM (≈ 5.57 µg/mL) | ≥ 46 µM | ≥ 40 µM | – | – | – | – | –
CC(C)C[C@H](NC(=O)[C@H](CCCN=C(N)N)NC(=O)[C@H](CCCCN)NC(=O)[C@H](CCCN=C(N)N)NC(=O)[C@@H](NC(=O)[C@H](CCCCN)NC(=O)[C@H](CCCCN)NC(=O)[C@H](CCCN=C(N)N)NC(=O)[C@H](CC(C)C)NC(=O)[C@H](CCCN=C(N)N)NC(=O)[C@@H](N)CCCN=C(N)N)[C@@H](C)O)C(=O)N[C@@H](CCCCN)C(N)=O [RRLRKKTRKRLK] | > 128 µM | – | – | > 128 µM | ≥ 128 µM | > 128 µM | > 128 µM | ≥ 64 µM

Source: DBAASP
